Results taken from the CheMixHub viscosity set.
± gives the uncertainty stated by the source.

Experiment: xn = mol fraction of the nth substance listed

CC1COC(=O)O1 (configuration not stated) + O
298.15 K, 101 kPa
Details	viscosity [mPa·s]
x1 = 0.0025	0.9114 ± 0.024
x1 = 0.005	0.9267 ± 0.025
x1 = 0.01	0.959 ± 0.025
x1 = 0.02	1.028 ± 0.027
x1 = 0.025	1.064 ± 0.028
x1 = 0.0307	1.099 ± 0.029

c1ccc2ccccc2c1 + Cc1ccc(C)cc1
viscosity [mPa·s], 101.3 kPa
Details	x1 = 0.00437	x1 = 0.00869	x1 = 0.01249	x1 = 0.01685	x1 = 0.01712	x1 = 0.01715	x1 = 0.01815	x1 = 0.02139	x1 = 0.02569	x1 = 0.02979
293.15 K	0.6371 ± 0.017	0.6386 ± 0.017	0.6414 ± 0.017	–	–	–	0.6438 ± 0.017	0.6483 ± 0.017	0.65 ± 0.017	0.6534 ± 0.017
298.15 K	0.5968 ± 0.016	0.5992 ± 0.016	0.6012 ± 0.016	–	–	0.6045 ± 0.016	–	0.6076 ± 0.016	0.6102 ± 0.016	0.6125 ± 0.016
313.15 K	0.5333 ± 0.014	0.5352 ± 0.014	0.5363 ± 0.014	–	0.5405 ± 0.014	–	–	0.5431 ± 0.014	0.5447 ± 0.014	0.5469 ± 0.014
323.15 K	0.476 ± 0.013	0.4777 ± 0.013	0.4789 ± 0.013	0.4818 ± 0.013	–	–	–	0.4848 ± 0.013	0.4862 ± 0.013	0.4879 ± 0.013

CC(=O)Oc1ccccc1C(=O)O + CCCCO
viscosity [mPa·s], 101 kPa
Details	x1 = 0.0007	x1 = 0.00094	x1 = 0.00118	x1 = 0.00141	x1 = 0.00165	x1 = 0.00189	x1 = 0.00236
293.15 K	2.93 ± 0.067	2.931 ± 0.067	2.932 ± 0.067	2.933 ± 0.067	2.934 ± 0.067	2.935 ± 0.067	2.938 ± 0.067
298.15 K	2.57 ± 0.059	2.571 ± 0.06	2.572 ± 0.06	2.573 ± 0.06	2.574 ± 0.06	2.575 ± 0.06	2.576 ± 0.06
303.15 K	2.26 ± 0.053	2.262 ± 0.053	2.262 ± 0.053	2.263 ± 0.053	2.264 ± 0.053	2.265 ± 0.053	2.266 ± 0.053
308.15 K	2.001 ± 0.047	2.002 ± 0.047	2.003 ± 0.047	2.005 ± 0.047	2.005 ± 0.047	2.007 ± 0.047	2.009 ± 0.047
310.15 K	1.9 ± 0.045	1.901 ± 0.045	1.901 ± 0.045	1.902 ± 0.045	1.903 ± 0.045	1.903 ± 0.045	1.905 ± 0.045
313.15 K	1.766 ± 0.042	1.767 ± 0.042	1.767 ± 0.042	1.768 ± 0.042	1.768 ± 0.042	1.769 ± 0.042	1.769 ± 0.042

c1ccc2ccccc2c1 + Cc1ccccc1
Details	viscosity [mPa·s]
293.15 K, 101.3 kPa, x1 = 0.00773	0.6067 ± 0.016
293.15 K, 101.3 kPa, x1 = 0.01364	0.606 ± 0.016
293.15 K, 101.3 kPa, x1 = 0.02032	0.6117 ± 0.016
293.15 K, 101.3 kPa, x1 = 0.02587	0.616 ± 0.016
293.15 K, 101.3 kPa, x1 = 0.03281	0.6241 ± 0.016
293.15 K, 101.3 kPa, x1 = 0.03882	0.6277 ± 0.016
293.15 K, 101.3 kPa, x1 = 0.04399	0.6308 ± 0.016
298.15 K, 101 kPa, x1 = 0.0419	0.5848 ± 0.015
298.15 K, 101 kPa, x1 = 0.1026	0.6394 ± 0.017
298.15 K, 101 kPa, x1 = 0.1533	0.6866 ± 0.018
298.15 K, 101 kPa, x1 = 0.2127	0.747 ± 0.02
298.15 K, 101.3 kPa, x1 = 0.00773	0.5676 ± 0.015
298.15 K, 101.3 kPa, x1 = 0.01364	0.5709 ± 0.015
298.15 K, 101.3 kPa, x1 = 0.02032	0.5768 ± 0.015
298.15 K, 101.3 kPa, x1 = 0.02587	0.581 ± 0.015
298.15 K, 101.3 kPa, x1 = 0.03281	0.5863 ± 0.015
298.15 K, 101.3 kPa, x1 = 0.03882	0.591 ± 0.015
298.15 K, 101.3 kPa, x1 = 0.04399	0.5948 ± 0.015
303.15 K, 101 kPa, x1 = 0.3218	0.7855 ± 0.02
308.15 K, 101 kPa, x1 = 0.3218	0.747 ± 0.019
308.15 K, 101 kPa, x1 = 0.3709	0.8101 ± 0.02
313.15 K, 101 kPa, x1 = 0.3218	0.7058 ± 0.018
313.15 K, 101 kPa, x1 = 0.3709	0.7571 ± 0.019
313.15 K, 101.3 kPa, x1 = 0.00773	0.4785 ± 0.013
313.15 K, 101.3 kPa, x1 = 0.01364	0.4809 ± 0.013
313.15 K, 101.3 kPa, x1 = 0.02032	0.4846 ± 0.013
313.15 K, 101.3 kPa, x1 = 0.02587	0.4888 ± 0.013
313.15 K, 101.3 kPa, x1 = 0.03281	0.4919 ± 0.013
313.15 K, 101.3 kPa, x1 = 0.03882	0.4951 ± 0.013
313.15 K, 101.3 kPa, x1 = 0.04399	0.4995 ± 0.013
318.15 K, 101 kPa, x1 = 0.3218	0.661 ± 0.017
318.15 K, 101 kPa, x1 = 0.3709	0.7105 ± 0.018
323.15 K, 101 kPa, x1 = 0.3218	0.627 ± 0.016
323.15 K, 101 kPa, x1 = 0.3709	0.672 ± 0.017
323.15 K, 101.3 kPa, x1 = 0.00773	0.4281 ± 0.011
323.15 K, 101.3 kPa, x1 = 0.01364	0.4311 ± 0.011
323.15 K, 101.3 kPa, x1 = 0.02032	0.4342 ± 0.011
323.15 K, 101.3 kPa, x1 = 0.02587	0.4374 ± 0.011
323.15 K, 101.3 kPa, x1 = 0.03882	0.4433 ± 0.011
323.15 K, 101.3 kPa, x1 = 0.04136	0.4401 ± 0.011
323.15 K, 101.3 kPa, x1 = 0.04399	0.4469 ± 0.011
